Measured values from patent US9840528B2, “Thione-platinum(II) complexes and pharmaceutical compositions thereof” (priority 2015, dated 2017).
Entries after “also recorded” stand apart in the source; their conditions may differ.

How the values were obtained:
[1] = system: A549 (human lung carcinoma) cell line; test: MTT assay, in vitro cytotoxicity against A549; format: cell-based; conditions: A549 cells; for IC50: MTT, 24 h exposure, read-out: IC50 ± SEM A549; for in vitro cytotoxicity in comparison, A549: compared with cisplatin, carboplatin or each other
Method: (§1) Monim-ul-Mehboob, A. A. Isab, V. Dhuna, G. Bhatia, K. Dhuna and S. Altuwaijri, New J. Chem., 39 (2015) 377-incorporated herein by reference in its entirety]. The cells were seeded at 3×10^3 cells/well in 100 μL DMEM containing 10% Fetal Bovine Serum (FBS) in 96-well tissue culture plate and incubated for 72 h at 37° C., 5% CO2, in air and 90% relative humidity in CO2 incubator. […] The medium of wells was discarded and 100 μL DMEM containing MTT (0.5 mg/ml) was added to the wells and incubated in CO2 incubator at 37° C. in dark for 4 h. After incubation, a purple colored formazan produced in the cells appeared as dark crystals in the bottom of the wells. The culture medium was discarded from each well carefully to prevent disruption of monolayer and 100 μL of dimethyl sulfoxide (DMSO) was added in each well. The solution in the wells was thoroughly mixed to dissolve the formazan crystals which produce a purple solution. The absorbance of the 96 well-plates was taken at 570 nm with Labsystems Multiskan EX ELISA reader against a reagent blank. […] The MTT assay was performed in three independent experiments, each in triplicate. […] A549 (human lung carcinoma), MCF7 (human breast cancer), HCT15 (human colon adenocarcinoma), and HeLa (human cervical cancer) cell lines. […] This cytotoxic effect was obtained by the stipulated increase in the concentrations of the complexes and cisplatin against fixed number of human cancer cells. The IC50 concentration of the complexes and Cisplatin for different human cell lines was obtained from curves between the complexes concentration and percentage viability of the cells.

[2] = system: HCT15 (human colon adenocarcinoma) cell line; test: MTT assay, in vitro cytotoxicity against HCT15; format: cell-based; conditions: HCT15 cells; for IC50: MTT, 24 h exposure, read-out: IC50 ± SEM HCT15
Method: as §1

[3] = system: MCF7 (human breast cancer) cell line; test: MTT assay, in vitro cytotoxicity against MCF7; format: cell-based; conditions: MCF7 cells; for IC50: MTT, 24 h exposure, read-out: IC50 ± SEM MCF7; for in vitro cytotoxicity in comparison, MCF7: compared with cisplatin or each other
Method: as §1

[4] = system: HeLa (human cervical cancer) cell line; test: MTT assay, in vitro cytotoxicity against HeLa; format: cell-based; conditions: 24 h exposure, HeLa cells, read-out: IC50 ± SEM HeLa
Method: as §1

[5] = Stability in DMSO-d6 by time dependent 1H NMR; format: physicochemical; conditions: spectra after 1, 6, 12, 24, 48 and 72 h
Method: Complexes (1), (5) and (6) were dissolved in DMSO-d6 and their ^1H NMR spectra were measured. The extent of decomposition over time was determined by comparing the NMR spectra collected after 1, 6, 12, 24, 48 and 72 h.

[6] = Solubility in organic solvents; format: physicochemical

Row | SMILES | IC50 [1] [µM] | IC50 [2] [µM] | IC50 [3] [µM] | IC50 [4] [µM] | in vitro cytotoxicity in comparison, A549 [1] | in vitro cytotoxicity in comparison, MCF7 [3] | IC80 [3] [µM] | in vitro cytotoxic efficacy in comparison, HCT15 ([2]; compared with cisplatin and carboplatin) | change in chemical shifts and splitting patterns in time dependent 1H NMR spectra (extent of decomposition) [5] | solubility in CDCl3 ([6]; CDCl3) | solubility in DMSO and DMF ([6]; DMSO and DMF)
1 | CCN1CCCNC1=S.CCN1CCCNC1=S.CCN1CCCNC1=S.CCN1CCCNC1=S.[Pt+2] [Complex (5), Tetrakis[1-ethyltetrahydropyrimidine-2(1H)-thione]platinum(II)] | 137 ± 1.77 | 159 ± 2.9 | 95 ± 2.02 | 166 ± 2.01 |  |  |  |  |  |  | 
2 | CC(C)N1CCNC1=S.CC(C)N1CCNC1=S.CC(C)N1CCNC1=S.CC(C)N1CCNC1=S.[Cl-].[Cl-].[Pt+2] [Complex (4), Tetrakis(1-isopropylimidazolidine-2-thione)platinum(II)] | 85.7 ± 1.35 | 122 ± 1.75 | 78.1 ± 1.45 | 95.44 ± 0.88 | almost equal cytotoxicity | very similar cytotoxic data and efficacy |  |  |  |  | 
3 | N.N.[Cl][Pt][Cl] [Cisplatin, cisplatin, reference compound] | 36.9 ± 1.88 | 26.6 ± 1.07 | 21.3 ± 1.54 | 18.1 ± 1.36 |  |  | 21.3 |  |  |  | 
4 | S=C1NCCCCN1.S=C1NCCCCN1.S=C1NCCCCN1.S=C1NCCCCN1.[Cl-].[Cl-].[Pt+2] [Complex (6), Tetrakis(1,3-diazepane-2-thione)platinum(II)] | 119 ± 2.25 | 108 ± 2.03 | 121 ± 3.36 | 92.5 ± 2.45 |  |  |  |  |  |  | 
5 | CCCN1CCNC1=S.CCCN1CCNC1=S.CCCN1CCNC1=S.CCCN1CCNC1=S.[Cl-].[Cl-].[Pt+2] [Complex (3), Tetrakis(1-propylimidazolidine-2-thione)platinum(II)] | 59.2 ± 2.6 | 95.6 ± 2.14 | 62.9 ± 1.51 | 133 ± 1.97 | in between cisplatin and carboplatin |  |  |  |  |  | 
6 | N.N.O=C([O-])C1(C(=O)[O-])CCC1.[Pt+2] [Carboplatin, carboplatin, reference compound] | 70.2 ± 1.7 | 63.3 ± 1.58 | 53.2 ± 1.65 | 55 ± 0.94 |  |  |  |  |  |  | 
7 | CCN1CCNC1=S.CCN1CCNC1=S.CCN1CCNC1=S.CCN1CCNC1=S.[Cl-].[Cl-].[Pt+2] [Complex (2), Tetrakis(1-ethylimidazolidine-2-thione)platinum(II)] | 37.1 ± 1.23 | 41.6 ± 1.53 | 11.4 ± 1.34 | 79.2 ± 1.95 | comparable to that of cisplatin; also recorded: almost two times better than that of carboplatin | two-fold better cytotoxic agent against the MCF7 cell line than cisplatin; also recorded: two-fold better as a cytotoxic agent than cisplatin | 11.4 | lies in between cisplatin's and carboplatin's | No significant change |  | 
8 | CC(C)N1CCNC1=S.CC(C)N1CCNC1=S.CC(C)N1CCNC1=S.CC(C)N1CCNC1=S.O=[N+]([O-])[O-].O=[N+]([O-])[O-].[Pt+2] [Complex (7), Tetrakis(1-isopropylimidazolidine-2-thione)platinum(II)] | 84.2 ± 1.09 | 116 ± 2.09 | 74.4 ± 1.28 | 99.9 ± 2.25 | almost equal cytotoxicity | very similar cytotoxic data and efficacy |  |  |  |  | 
9 | CN1CCNC1=S.CN1CCNC1=S.CN1CCNC1=S.CN1CCNC1=S.O.O.[Cl-].[Cl-].[Pt+2] [Complex (1), Tetrakis(1-methylimidazolidine-2-thione)platinum(II)] | 55.5 ± 1.08 | 147 ± 1.77 | 74.6 ± 1.54 | 142 ± 2.42 | in between cisplatin and carboplatin | very similar cytotoxic data and efficacy |  |  | No significant change | moderately soluble | completely soluble
